In patent publication US5691366A, “Nitro compounds, process for preparation thereof and use thereof” (Fujisawa Pharmaceutical Co., Ltd., priority 1991, dated 1997):
Where two headings read alike, the source gives them in different places.

Columns and labels:
[1] = system: thoracic aorta from male Sprague-Dawley rats; experiment: Vasodilating activity in vitro (relaxation of norepinephrine-contracted aortic strips); parameters: species or system rat (male Sprague-Dawley); conditions: rat aorta helical strips contracted by 3.2×10^-8 g/ml norepinephrine, 37° C.
Description: The thoracic aorta from male Sprague-Dawley rats, aged 9-11 weeks, were removed and cut into helical strips after removal of excess fat and connective tissues. The strips were mounted vertically in organ baths containing 25 ml Tyrode solution and isometric tension was measured. The tissue bath solution was maintained at 37° C. and bubbled with a 95% O2 and 5% CO2 gas mixture. After the resting tension was adjusted to 0.5 g, the strips were contracted by 3.2×10^-8 g/ml of norepinephrine (NE). The test compound dissolved in ethanol, polyethylene glycol and distilled water (1:1:2) were added to the organ bath cumulatively.
Then, relaxative activity of test compound was expressed as IC50 value i.e. concentration required to inhibit the contraction response by 50%.

[2] = system: Mean Arterial Blood Pressure in Anesthetized Rats; experiment: Effect on mean arterial blood pressure in anesthetized rats (intravenous); format: in vivo, rat (male Sprague-Dawley); conditions: for inhibition in vivo at 0.1 mg/kg / inhibition in vivo at 0.32 mg/kg / inhibition in vivo at 0.032 mg/kg: Rattus norvegicus, iv, maximal % decrease of mean blood pressure, read-out: Hypotensive effect R max; for Hypotensive effect T 1/2: i.v., time to recover to half of maximal decrease
Description: Male Sprague-Dawley rats, aged 9-12 weeks, were anesthetized with urethane (1.4 g/kg i.p.). A polyethylene cannula filled with heparin solution was inserted into the femoral artery of the rats to measure mean blood pressure. Mean blood pressure was measured with a pressure transducer and recorded on a polygraph. The test compound dissolved in ethanol, polyethylene glycol and distilled water (1:1:2), were administered intraveneously in a volume of 0.25 ml/kg. Intravenous hypothypotensive effects of each compound were expressed as the maximal decrease (R max) and the half time (T 1/2). Briefly, R max was expressed as maximal % change compared to mean blood pressure prior to the administration of compound. T 1/2 was expressed as a time during which the hypotensive effect recovered to half of the maximal decrease.

[3] = system: human platelet aggregation; experiment: Inhibition of human platelet aggregation (anti-platelet aggregation activity); format: cell-based; conditions: human PRP, concentration required to inhibit aggregation by 50%, read-out: ED50 (the source's name)
Description: Inhibitory activity of the nitro compounds of this invention against human platelet aggregation was measured according to the method described below.
Blood was collected from human volunteers. The blood was prevented from coagulation with 1 volume of 3.8% sodium citrate to 9 volumes of blood. Platelet rich plasma (PRP) was prepared by centrifugation of the blood at 1300 rpm for 10 min. at 10° C. The PRP was diluted with platelet poor plasma obtained by further centrifugation of the blood at 3000 rpm for 10 min. The platelet counts in the PRP used for aggregation studies were about 4.0×10^5 platelets/mm^3. Aggregation studies were performed turbidimetrically using NKK HEMATRACER 1. To 225 μl of PRP 25 μl of the test compounds was added and preincubated for 2 min. After preincubation 5 μl of aggregating agents were added to the mixture. Collagen and ADP were used as aggregating agents at the concentrations of 0.5 μg/ml and 2.5 μM, respectively. Activities of the test compounds were expressed as ED50 values i.e. concentrations required to inhibit the platelet aggregation responses by 50%.

[4] = system: Mean Arterial Blood Pressure in Conscious Rats; experiment: Effect on mean arterial blood pressure in conscious rats (oral); format: in vivo, rat (male Sprague-Dawley); conditions: for Hypotensive effect Dur.: time to recover to 5% of maximal decrease; for Hypotensive effect T 1/2: time to recover to half of maximal decrease; for inhibition in vivo at 3.2 mg/kg / inhibition in vivo at 10 mg/kg / inhibition in vivo at 32 mg/kg: Rattus norvegicus, po, maximal % decrease of mean blood pressure, read-out: Hypotensive effect R max
Description: Male Sprague-Dawley rats, aged 9-11 weeks, were anesthetized with ether and a polyethylene cannula filled with heparin solution was inserted into the femoral artery of the rats to measure mean blood pressure. Mean blood pressure was measured with a pressure transducer and recorded on a polygraph. Two hours after operation, the drug suspended in 0.5% methyl cellulose was administered orally in a volume of 5 ml/kg. Oral hypotensive effects of each compound were expressed as the maximal decrease (R max), the half time (T 1/2) and the duration (Dur.). Briefly, R max was expressed as maximal % change compared to mean blood pressure prior to the administration of compound. T 1/2 was expressed as a time during which the hypotensive effect recovered to half of the maximal decrease. Duration was expressed as a time during which the hypotensive effect recovered to 5% of the maximal decrease.

[5] = Homo sapiens, Platelet, Inducer: ADP 2.5 μM

Row | Compound | IC50 ([1]; Rattus norvegicus) [µM] | IC50 [1] [µM] | inhibition in vivo at 0.1 mg/kg ([2]; 0.1 mg/kg) [%] | inhibition in vivo at 0.32 mg/kg ([2]; 0.32 mg/kg) [%] | inhibition in vivo at 0.032 mg/kg ([2]; 0.032 mg/kg) [%] | Hypotensive effect T 1/2 ([2]; 0.1 mg/kg) [min] | Hypotensive effect T 1/2 ([2]; 0.32 mg/kg) [min] | further results
1 | CCC(=CC(COC(=O)c1cccnc1)=NO)C(C)[N+](=O)[O-] (single isomer, unassigned) [Example 1 A, 4-ethyl-2-hydroxyimino-5-nitro-3-hexen-1-yl 3-pyridinecarboxylate] | 16 | – | 21.7 | 37 | – | – | – | –
2 | CCC(=CC(COC(=O)c1cccnc1)=NO)C(C)[N+](=O)[O-] (single isomer, unassigned) [Example 1 B, 4-ethyl-2-hydroxyimino-5-nitro-3-hexen-1-yl 3-pyridinecarboxylate] | – | 10 | – | – | 11.8 | – | – | –
3 | CCC(=CC(COC(N)=O)=NO)C(C)[N+](=O)[O-] (single isomer, unassigned) [Example 2 A, 4-Ethyl-2-hydroxyimino-5-nitro-3-hexen-1-yl carbamate] | – | – | – | – | – | – | – | IC50 ([3]; Homo sapiens, Platelet, Inducer: Collagen 0.5 μg/ml): 4.6 µM; IC50 ([3]; Inducer: ADP 2.5 μM): 8.6 µM
4 | CCC(=CC(COC(N)=O)=NO)C(C)[N+](=O)[O-] (single isomer, unassigned) [Example 2 B, 4-Ethyl-2-hydroxyimino-5-nitro-3-hexen-1-yl carbamate] | 11.1 | – | 35.4 | – | 30.9 | 7.3 | – | Hypotensive effect T 1/2 ([2]; 0.032 mg/kg): 5.3 min; IC50 ([3]; Inducer: ADP 2.5 μM): 2.4 µM; IC50 ([3]; Inducer: Collagen 0.5 μg/ml): 3.6 µM
5 | CCNC(=O)OCC(C=C(CC)C(C)[N+](=O)[O-])=NO (single isomer, unassigned) [Example 3 A, 4-Ethyl-2-hydroxyimino-5-nitro-3-hexen-1-yl ethylcarbamate] | 18.8 | – | 29.3 | – | 12.6 | 7.2 | – | Hypotensive effect T 1/2 ([2]; 0.032 mg/kg): 4.8 min
6 | CCC(=CC(CN1C(=O)c2ccccc2C1=O)=NO)C(C)[N+](=O)[O-] (single isomer, unassigned) [Example 4 A, N-(4-Ethyl-2-hydroxyimino-5-nitro-3-hexen-1-yl)-phthalimide] | 1.2 | – | 24.6 | 40.8 | – | 6.7 | 5.1 | –
7 | CCC(=CC(CN1C(=O)c2ccccc2C1=O)=NO)C(C)[N+](=O)[O-] (single isomer, unassigned) [Example 4 B, N-(4-Ethyl-2-hydroxyimino-5-nitro-3-hexen-1-yl)-phthalimide] | – | 1.8 | – | – | – | – | – | –
8 | CCC(=CC(CNC(C)=O)=NO)C(C)[N+](=O)[O-] (single isomer, unassigned) [Example 5 A, 1-Acetylamino-4-ethyl-2-hydroxyimino-5-nitro-3-hexene] | 46.9 | – | – | 49.9 | – | 7.6 | 12.8 | Hypotensive effect Dur. ([4]; 3.2 mg/kg): 30.8 min; Hypotensive effect T 1/2 ([4]; 3.2 mg/kg): 16 min; Hypotensive effect Dur. ([4]; 10 mg/kg): 83.9 min; Hypotensive effect T 1/2 ([4]; 10 mg/kg): 25 min; Hypotensive effect Dur. ([4]; 32 mg/kg): 144.2 min; Hypotensive effect T 1/2 ([4]; 32 mg/kg): 75.6 min; inhibition in vivo at 3.2 mg/kg ([4]; 3.2 mg/kg): 27.2%; inhibition in vivo at 10 mg/kg ([4]; 10 mg/kg): 54.4%; inhibition in vivo at 32 mg/kg ([4]; 32 mg/kg): 60.6%; IC50 [3, 5]: 5.1 µM
9 | CCC(=CC(CNC(C)=O)=NO)C(C)[N+](=O)[O-] (single isomer, unassigned) [Example 5 B, 1-Acetylamino-4-ethyl-2-hydroxyimino-5-nitro-3-hexene] | – | 88.7 | 34.3 | – | – | 6.2 | – | –
10 | CCC(=CC(CNC(=O)c1cccnc1)=NO)C(C)[N+](=O)[O-] (stereo not shown) [Example 6 A] | – | 25.1 | 16.9 | 36.3 | – | 6.8 | 11.2 | Hypotensive effect Dur. ([4]; 3.2 mg/kg): 29.3 min; Hypotensive effect T 1/2 ([4]; 3.2 mg/kg): 20 min; Hypotensive effect Dur. ([4]; 10 mg/kg): 116.0 min; Hypotensive effect T 1/2 ([4]; 10 mg/kg): 30 min; Hypotensive effect Dur. ([4]; 32 mg/kg): > 300 min; Hypotensive effect T 1/2 ([4]; 32 mg/kg): 117 min; inhibition in vivo at 3.2 mg/kg ([4]; 3.2 mg/kg): 22.3%; inhibition in vivo at 10 mg/kg ([4]; 10 mg/kg): 27.2%; inhibition in vivo at 32 mg/kg ([4]; 32 mg/kg): 29.6%; IC50 [3, 5]: 1.8 µM
11 | CCC(=CC(CNC(=O)c1ccc(C)nc1)=NO)C(C)[N+](=O)[O-] (stereo not shown) [Example 35, N-(4-Ethyl-2-hydroxyimino-5-nitro-3-hexen-1-yl)-6-methyl-3-pyridinecarboxamide] | – | – | – | 41.7 | – | – | 13.7 | Hypotensive effect T 1/2 ([4]; 10 mg/kg): 24.1 min; inhibition in vivo at 10 mg/kg ([4]; 10 mg/kg): 31.1%

Continued, in another order:

Row | IC50 ([1]; Rattus norvegicus) [µM] | IC50 [1] [µM] | Compound | inhibition in vivo at 0.1 mg/kg ([2]; 0.1 mg/kg) [%] | inhibition in vivo at 0.32 mg/kg ([2]; 0.32 mg/kg) [%] | inhibition in vivo at 0.032 mg/kg ([2]; 0.032 mg/kg) [%] | Hypotensive effect T 1/2 ([2]; 0.1 mg/kg) [min] | Hypotensive effect T 1/2 ([2]; 0.32 mg/kg) [min] | further results
12 | 10.7 | – | CCC(=CC(CNS(=O)(=O)N(C)C)=NO)C(C)[N+](=O)[O-] (single isomer, unassigned) [Example 7 A, N,N-Dimethyl-N'-(4-ethyl-2-hydroxyimino-5-nitro-3-hexen-1-yl)sulfamide] | 31.7 | 42.1 | – | 7.6 | 5.1 | –
13 | – | 19.4 | CCC(=CC(CNS(=O)(=O)N(C)C)=NO)C(C)[N+](=O)[O-] (single isomer, unassigned) [Example 7 B, N,N-Dimethyl-N'-(4-ethyl-2-hydroxyimino-5-nitro-3-hexen-1-yl)sulfamide] | – | – | – | 6.6 | – | –
14 | 4.9 | – | CCC(=CC(CSc1nnnn1C)=NO)C(C)[N+](=O)[O-] (single isomer, unassigned) [Example 12 A, 1-Methyl-5-(4-ethyl-2-hydroxyimino-5-nitro-3-hexen-1-yl)thiotetrazole] | 37.7 | – | 16.7 | 5.9 | – | Hypotensive effect T 1/2 ([2]; 0.032 mg/kg): 7.4 min; IC50 [3, 5]: 1.1 µM
15 | – | 5 | CCC(=CC(CSc1nnnn1C)=NO)C(C)[N+](=O)[O-] (single isomer, unassigned) [Example 12 B, 1-Methyl-5-(4-ethyl-2-hydroxyimino-5-nitro-3-hexen-1-yl)thiotetrazole] | – | – | – | – | – | IC50 ([3]; Inducer: ADP 2.5 μM): 1.7 µM
16 | 0.11 | – | CCC(=CC(CSc1nc2ccccc2s1)=NO)C(C)[N+](=O)[O-] (single isomer, unassigned) [Example 14 B, 2-(4-Ethyl-2-hydroxyimino-5-nitro-3-hexen-1-yl)thio-benzothiazole] | 33.9 | – | 4.7 | – | – | –
